# Test results from patent US12116358B2, “Substituted indoles and methods of use thereof” (EPIZYME, INC., priority 2018, dated 2024).
# Where two headings read alike, the source gives them in different places.
# Legend:
# SETD2(1434-1711) = target: T1, SETD2(1434-1711) (Homo sapiens, UniProt Q9BYW2); test: SETD2 (1434-1711) assay; assay type: biochemical; settings: read-out: SETD2 (1434-1711)
# T1 construct: SETD2 (1434-1711) Assay; catalogue N/A
# T1 sequence (Q9BYW2 1434-1711): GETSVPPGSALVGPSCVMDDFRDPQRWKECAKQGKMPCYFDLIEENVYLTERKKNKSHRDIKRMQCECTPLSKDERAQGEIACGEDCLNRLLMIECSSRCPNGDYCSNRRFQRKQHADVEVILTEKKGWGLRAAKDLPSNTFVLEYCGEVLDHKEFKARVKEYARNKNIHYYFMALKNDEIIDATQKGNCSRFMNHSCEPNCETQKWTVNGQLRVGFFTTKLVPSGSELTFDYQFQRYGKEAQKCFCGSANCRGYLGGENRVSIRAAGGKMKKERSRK
# H3K36me3 in A549 cells = test: In-Cell Western (ICW) assay of SETD2 inhibitors (A549 assay); assay type: cell-based, human; settings: A549 cells, read-out: SETD2 A549
# Outline: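 A549 cells seeded at 4,000/well onto compound and incubated 3 days at 37° C. Methanol-fixed cells stained overnight at 4° C with anti-H3K36me3 (1:1000), then IRDye 800CW secondary with DRAQ5 DNA counterstain. Plates read by Licor imaging at 700 and 800 channels.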
SMILES,IC50 (SETD2(1434-1711)),IC50 (H3K36me3 in A549 cells),IC50 (H3K36me3 in A549 cells; Homo sapiens)
Cc1ccc(F)c2cc(C(=O)Nc3nnc(C4CCN(C)CC4)o3)[nH]c12 [compound 557],> 10 µM,,> 25 µM
Cc1ccc(F)c2cc(C(=O)Nc3cc(C4CCN(C)CC4)n[nH]3)[nH]c12 [compound 558],> 10 µM,> 25 µM,
Cc1ccc(F)c2cc(C(=O)Nc3nnc(C4CCN(C)CC4)[nH]3)[nH]c12 [compound 559],> 10 µM,,> 25 µM
Cc1ccc(F)c2cc(C(=O)NC(C(=O)N3CCOCC3)c3ccccn3)[nH]c12 (stereo not shown) [compound 560],> 10 µM,,> 25 µM
Cc1ccc(F)c2cc(C(=O)Nc3cn(C4CCN(C)CC4)cn3)[nH]c12 [compound 561],> 10 µM,,> 25 µM
Cc1ccc(F)c2cc(C(=O)Nc3cnc(C4CCN(C)CC4)[nH]3)[nH]c12 [compound 562],> 10 µM,,> 25 µM
Cc1cccc2cc(C(=O)NCc3ccccc3N3CCOCC3)[nH]c12 [compound 575],> 18 µM,,> 25 µM
Cc1cccnc1C1(NC(=O)c2cc3cccc(C)c3[nH]2)CNC1 [compound 591],> 50 µM,,> 25 µM
Cc1cccc2cc(C(=O)NC3CCN(C(=O)CCCN)C3)[nH]c12 (stereo not shown) [compound 593],> 50 µM,,> 25 µM
Cc1cccc2cc(C(=O)NC3CN(C(=O)CCCN)C3)[nH]c12 [compound 594],> 50 µM,,> 25 µM
Cc1cccnc1C(C)(C)NC(=O)c1cc2cccc(C)c2[nH]1 [compound 595],> 50 µM,> 25 µM,
Cc1cccc2cc(C(=O)N[C@H]3C[C@@H](NC(=O)CCN)C3)[nH]c12 [compound 596],> 50 µM,,> 25 µM
Cc1cccc2cc(C(=O)NC3CC(NC(=O)CCN)C3)[nH]c12 (stereo not shown) [compound 597],> 50 µM,> 25 µM,
Cc1cccnc1C(NC(=O)c1cc2ccnc(C)c2[nH]1)C1CC1 (stereo not shown) [compound 598],> 50 µM,,> 25 µM
Cc1cccc2cc(C(=O)NC3CCC(NC(=O)CCN)C3)[nH]c12 (stereo not shown) [compound 600],> 50 µM,,> 25 µM
Cc1cccnc1C(CN1CCOCC1)N(C)C(=O)c1cc2cccc(C)c2[nH]1 (stereo not shown) [compound 601],> 50 µM,> 25 µM,
Cc1noc(CN)c1C(NC(=O)c1cc2cccc(C)c2[nH]1)C1CC1 (stereo not shown) [compound 602],> 50 µM,,> 25 µM
Cc1cccc2cc(C(=O)NC(CN(C)C)c3cccnc3)[nH]c12 (stereo not shown) [compound 603],> 50 µM,> 25 µM,
Cc1cccnc1C(NC(=O)c1cc2ncccn2n1)C1CC1 (stereo not shown) [compound 604],> 50 µM,,> 25 µM
Cc1cccc2cc(C(=O)NC3CCC(NC(=O)Cc4cccnc4)CC3)[nH]c12 (stereo not shown) [compound 605],> 50 µM,> 25 µM,
Cc1cccnc1C(NC(=O)c1cc2c(CO)ccc(C)c2[nH]1)C1CC1 (stereo not shown) [compound 606],> 50 µM,> 25 µM,
Cc1cccnc1C(NC(=O)C1Cc2cccc(C)c2N1)C1CC1 (stereo not shown) [compound 607],> 50 µM,,> 25 µM
Cc1cccnc1C(NC(=O)c1cc2cncc(C)c2[nH]1)C1CC1 (stereo not shown) [compound 608],> 50 µM,> 25 µM,
Cc1ccc(F)c2cc(C(=O)Nc3cccc4cccnc34)[nH]c12 [compound 609],> 50 µM,> 25 µM,
Cc1ccc(F)c2cc(C(=O)Nc3cc(N4CCN(C)CC4)ccn3)[nH]c12 [compound 612],> 50 µM,,> 25 µM
Cc1cccc2cc(C(=O)N[C@@H](CO)c3ccccc3)[nH]c12 [compound 616],105 µM,,> 25 µM
Cc1cccc2cc(C(=O)NC3CC(=O)NCC(c4ccccc4)C3)[nH]c12 (stereo not shown) [compound 617],> 200 µM,> 25 µM,
Cc1cccnc1C(NC(=O)c1cc2cccc(Cc3ccn[nH]3)c2[nH]1)C1CC1 (stereo not shown) [compound 618],> 200 µM,,> 25 µM

# Continued, values first:
IC50 (SETD2(1434-1711)),IC50 (H3K36me3 in A549 cells),IC50 (H3K36me3 in A549 cells; Homo sapiens),SMILES
5.1 µM,> 25 µM,,Cc1ccc(F)c2cc(C(=O)Nc3ccn(C4CCN(C)CC4)n3)[nH]c12 [compound 548]
5.8 µM,> 25 µM,,Cc1cccc2cc(C(=O)NCCc3ccccc3N3CCC(CCN(C)C)CC3)[nH]c12 [compound 549]
6.5 µM,> 25 µM,,Cc1ccc(F)c2cc(C(=O)NC(C(=O)NCc3ccccc3)c3ccccn3)[nH]c12 (stereo not shown) [compound 550]
6.7 µM,> 25 µM,,Cc1cc2ncc(CN(C)C)n2cc1NC(=O)c1cc2cccc(C)c2[nH]1 [compound 551]
7.7 µM,> 25 µM,,Cc1cccc2cc(C(=O)NC3CC4CCC(C3)N4C(=O)CCCN)[nH]c12 (stereo not shown) [compound 552]
8.3 µM,> 25 µM,,NCCC(=O)NC1CCC(NC(=O)c2cc3cccc(Br)c3[nH]2)CC1 (stereo not shown) [compound 553]
8.7 µM,> 25 µM,,Cc1cccc2cc(C(=O)NCc3ccccc3N3CCN(C)CC3)[nH]c12 [compound 554]
9.2 µM,> 25 µM,,Cc1ccc(F)c2cc(C(=O)Nc3cccc(N4CCN(C5CC5)c5ccccc54)c3)[nH]c12 [compound 555]
9.9 µM,> 25 µM,,COC(=O)CC(NC(=O)c1cc2cccc(C)c2[nH]1)c1ccccc1F (stereo not shown) [compound 556]
10.1 µM,,> 25 µM,Cc1cccnc1C(NC(=O)c1cc2cccc(C)c2[nH]1)C1CCCC1 (stereo not shown) [compound 563]
10.9 µM,,> 25 µM,Cc1cccc2cc(C(=O)NC(c3cccc4c3NC(=O)C4)C3CC3)[nH]c12 (stereo not shown) [compound 564]
11.6 µM,,> 25 µM,Cc1ccc(F)c2cc(C(=O)Nc3cnn(C4CCC(N(C)C)CC4)c3)[nH]c12 (stereo not shown) [compound 565]
12.9 µM,,> 25 µM,Cc1cccc2cc(C(=O)NCCc3ccccc3N3CCOC(CN(C)C)C3)[nH]c12 (stereo not shown) [compound 566]
13.6 µM,,> 25 µM,Cc1cccnc1C(CCCN1CCNCC1)NC(=O)c1cc2cccc(C)c2[nH]1 (stereo not shown) [compound 567]
13.9 µM,,> 25 µM,Cc1cccnc1C(NC(=O)c1cc2cccc(C)c2[nH]1)C(C)(C)C (stereo not shown) [compound 568]
14 µM,,> 25 µM,Cc1ccc(F)c2cc(C(=O)Nc3cnn(C4CCN(C)CC4)c3)[nH]c12 [compound 569]
15 µM,,> 25 µM,Cc1cccc2cc(C(=O)NCc3cccc4ccnn34)[nH]c12 [compound 570]
15.9 µM,> 25 µM,,Cc1cccnc1C(CCC(=O)NC1CCOC1)NC(=O)c1cc2cccc(C)c2[nH]1 (stereo not shown) [compound 571]
16.6 µM,,> 25 µM,Cc1cccnc1C(CCC(=O)N1CCNCC1)NC(=O)c1cc2cccc(C)c2[nH]1 (stereo not shown) [compound 572]

IC50 (SETD2(1434-1711)),IC50 (H3K36me3 in A549 cells),IC50 (H3K36me3 in A549 cells; Homo sapiens),SMILES
16.9 µM,,> 25 µM,Cc1cc(C(=O)N[C@H]2CC[C@@H]2N)cnc1C(NC(=O)c1cc2cccc(C)c2[nH]1)C1CC1 (stereo partly shown) [compound 573]
17.3 µM,,> 25 µM,Cc1cccnc1C(NC(=O)c1cc2cccc(CO)c2[nH]1)C1CC1 (stereo not shown) [compound 574]
18.6 µM,,> 25 µM,Cc1ccc[n+]([O-])c1C(NC(=O)c1cc2cccc(C)c2[nH]1)C1CC1 (stereo not shown) [compound 576]
21.8 µM,,> 25 µM,Cc1cc(C(=O)N2CCNCC2)ccc1C(NC(=O)c1cc2cccc(C)c2[nH]1)C1CC1 (stereo not shown) [compound 577]
22.5 µM,> 25 µM,,Cc1cccc2cc(C(=O)Nc3ccn4ccnc4c3)[nH]c12 [compound 578]
23 µM,> 25 µM,,Cc1cccnc1C(CCC(=O)NC1CCC(N)CC1)NC(=O)c1cc2cccc(C)c2[nH]1 (stereo not shown) [compound 579]
24.5 µM,,> 25 µM,Cc1cccc2cc(C(=O)NCCc3ccccc3-n3ccnc3)[nH]c12 [compound 580]
28.2 µM,> 25 µM,,Cc1cccc2cc(C(=O)NC3CCC(NS(=O)(=O)CCCN)CC3)[nH]c12 (stereo not shown) [compound 581]
31.2 µM,,> 25 µM,CCN(CC)CCCC(NC(=O)c1cc2cccc(C)c2[nH]1)c1ncccc1C (stereo not shown) [compound 582]
32.4 µM,,> 25 µM,Cc1ccc(C(=O)N2CCNCC2)cc1C(NC(=O)c1cc2cccc(C)c2[nH]1)C1CC1 (stereo not shown) [compound 583]
33.7 µM,,> 25 µM,Cc1cc(C(=O)N[C@@H]2CC[C@@H]2N)cnc1C(NC(=O)c1cc2cccc(C)c2[nH]1)C1CC1 (stereo partly shown) [compound 584]
34 µM,> 25 µM,,CNC(=O)C(NC(=O)c1cc2c(F)ccc(C)c2[nH]1)c1ccccn1 (stereo not shown) [compound 585]
36.4 µM,,> 25 µM,CCOC(=O)CC(NC(=O)c1cc2cccc(C)c2[nH]1)c1ccccc1 (stereo not shown) [compound 586]
37.4 µM,,> 25 µM,Cc1cccc2cc(C(=O)N[C@H]3CC[C@H](NC(=O)CCN4CCCCC4)CC3)[nH]c12 [compound 587]
40.4 µM,,> 25 µM,Cc1cccc2cc(C(=O)N[C@@H]3CCN(C(=O)CCCN)C[C@@H]3C)[nH]c12 [compound 588]
43.6 µM,,> 25 µM,CCN(CC)CCC(=O)N[C@H]1CC[C@H](NC(=O)c2cc3cccc(C)c3[nH]2)CC1 [compound 589]
62.7 µM,> 25 µM,,Cc1cccc2cc(C(=O)NC3CCN(C(=O)CCCN)CC3C)[nH]c12 (stereo not shown) [compound 614]
71.1 µM,> 25 µM,,Cc1cccc2cc(C(=O)NC(c3cccc(CN(C)C)n3)C3CC3)[nH]c12 (stereo not shown) [compound 615]
